Measurements: patent US5541290A, “Optically pure calpain inhibitor compounds” (priority 1993, dated 1996)
Counter-ions that a name gives are not always drawn.

Molecular target: T1, Calpain I (porcine erythrocytes) (Sus scrofa, UniProt P35750)
T1 construct: Calpain I (porcine erythrocytes, Nacalai Tesque, Kyoto, Japan); purchased Nacalai Tesque, Kyoto, Japan; host or cells: porcine erythrocytes (natural tissue source)
T1 sequence (P35750 1-714): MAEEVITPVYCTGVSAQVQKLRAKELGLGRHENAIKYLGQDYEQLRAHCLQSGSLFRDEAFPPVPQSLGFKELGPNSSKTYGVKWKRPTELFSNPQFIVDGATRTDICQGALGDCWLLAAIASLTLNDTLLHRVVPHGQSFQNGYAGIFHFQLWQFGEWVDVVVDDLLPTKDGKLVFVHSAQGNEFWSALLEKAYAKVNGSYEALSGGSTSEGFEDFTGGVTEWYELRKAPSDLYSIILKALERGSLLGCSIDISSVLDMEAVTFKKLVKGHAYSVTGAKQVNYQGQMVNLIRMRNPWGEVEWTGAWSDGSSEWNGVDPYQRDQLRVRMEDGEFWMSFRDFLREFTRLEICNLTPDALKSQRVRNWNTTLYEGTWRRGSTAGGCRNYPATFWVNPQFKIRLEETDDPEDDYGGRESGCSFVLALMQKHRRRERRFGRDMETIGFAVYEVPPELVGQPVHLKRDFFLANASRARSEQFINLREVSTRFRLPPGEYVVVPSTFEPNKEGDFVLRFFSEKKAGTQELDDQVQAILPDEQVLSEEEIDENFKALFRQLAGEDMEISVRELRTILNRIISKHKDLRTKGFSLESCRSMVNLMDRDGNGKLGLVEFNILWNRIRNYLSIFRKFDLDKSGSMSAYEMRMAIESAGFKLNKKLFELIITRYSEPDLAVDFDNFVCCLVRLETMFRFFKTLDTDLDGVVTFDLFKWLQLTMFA
T1 sequence (P04574 1-266 partner): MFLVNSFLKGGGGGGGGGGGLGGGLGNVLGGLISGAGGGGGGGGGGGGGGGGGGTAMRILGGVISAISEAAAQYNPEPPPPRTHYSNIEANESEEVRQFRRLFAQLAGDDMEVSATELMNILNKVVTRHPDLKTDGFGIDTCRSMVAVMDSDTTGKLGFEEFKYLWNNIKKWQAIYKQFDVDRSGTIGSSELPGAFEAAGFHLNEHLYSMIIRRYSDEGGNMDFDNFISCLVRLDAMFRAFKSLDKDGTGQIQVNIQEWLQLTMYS
Assay: Calpain assay, continuous spectrofluorometric assay with SLY-MCA
Type: biochemical
Conditions: not given

IC50 | Compound
> 1500 nM | CCNC(=O)C(=O)C(Cc1ccccc1)NC(=O)C(CC(C)C)NC(=O)OCc1ccccc1 [Cbz-L-Leu-D-Phe-CONH-Et]

Molecular target: T1, Calpain I (porcine erythrocytes)
Assay: as above
Type: biochemical
Conditions: SLY-MCA substrate, 25° C., pH 7.5, competitive inhibition fit, read-out: Ki, pCal I
Procedure: Calpain activity was monitored using a continuous spectrofluorometric assay with succinyl-Leucyl-Tyrosyl-4-methylcoumaryl-γ-amide (SLY-MCA); Sasaki, T.; Kikuchi, T.; Yumotogo, N.; Yoshimura, N. and Murachi, T. J. Biol. Chem. 1984, 259. 12489-12494) at 25° C. using a Hitachi F4500 fluorescence spectrophotometer with a temperature controlled cuvette holder. The substrate solution was composed of SLY-MCA (2-0.2 mM) in 50 mM MOPS, pH 7.5, 5 mM CaCl2, 5 mM β-mercaptoethanol and 1% DMSO. Solutions of the inhibitors (100-500 nM) were prepared in the same buffer mixture as substrate. Calpain I (porcine erythrocytes, Nacalai Tesque, Kyoto, Japan) was diluted to 180 ug/mL in 20 mM HEPES, pH 7.5, 2 mM EDTA, 2 mM EGTA and 5 mM DTT. The substrate solution (0.9 mL) was placed in a 1 cm cuvette and to this was added either the inhibitor solution (0.05 mL) or the buffer (0.05 mL) as a control. The reaction was initiated by addition of the calpain I solution (0.05 mL) and the increase in fluorescence (excitation at 380 nm; emission at 460 nm) was monitored for 3 to 10 min. The initial velocities were then used to obtain the values of Vmax, Km and Ki by an iterative least squares fit of the data to the following equation for competitive inhibition according to the method of W. W. Cleland, Biochim. Biophys. Acta 67: 173 (1963).
V={Vmax ·[SLY-MCA]}/{(1+Inh]/Kl)·Km+[SLY-MCA]}

Compound | Ki
CCCC(NC(=O)C(CC(C)C)NC(=O)C(N)Cc1ccccc1)C(=O)C(=O)NCC [L-Phe-L-Leu-L-Norvaline-CONH-Et.HCl, L-Phe-L-Leu-L-Norvaline-CONH-Et·HCl] | 116 ± 5 nM
CCNC(=O)C(=O)C(CC)NC(=O)C(CC(C)C)NC(=O)N1CCOCC1 [Morpholinourea-L-Leu-L-Abu-CONH-Et] | 199 ± 16 nM
CCC(NC(=O)C(CC(C)C)NC(=O)OCc1ccccc1)C(=O)C(=O)NCCS(=O)(=O)CC [Cbz-L-Leu-L-Abu-C(O)-NH-(CH2)2 -SO2 -ET, Cbz-L-Leu-L-Abu-C(O)--NH--(CH2)2 --SO2 --Et] | 129 ± 15 nM
CCCC(NC(=O)C(CC(C)C)NC(=O)C(N)Cc1ccccc1)C(=O)C(=O)NCC [D-Phe-L-Leu-L-Norvaline-CONH-Et.HCl, D-Phe-L-Leu-L-Norvaline-CONH-Et·HCl] | 244 ± 11 nM
CC(C)C[C@H](NC(=O)OCc1ccccc1)C(=O)N[C@@H](Cc1ccccc1)C(=O)C(=O)N[C@@H](C)C(=O)O [Cbz-L-Leu-L-Phe-C(O)-L-Ala-OH] | 718 ± 84 nM
Cbz-L-Leu-L-Phenylalanine-CONH-Et | 89 nM
Cbz-L-Leu-L-Norvaline-CONH-Et | 78 nM
COC(=O)C(C)NC(=O)C(=O)C(Cc1ccccc1)NC(=O)C(CC(C)C)NC(=O)OCc1ccccc1 [Cbz-L-Leu-L-Phe-C(O)-L-Ala-OMe] | 92 ± 6 nM
Boc-L-Phe-L-Leu-L-Norvaline-CONH-Et | 61 ± 2 nM
CCNC(=O)C(=O)C(CC)NC(=O)C(CC(C)C)NC(=O)OC(C)(C)C [Boc-L-Leu-L-Abu-CONH-Et] | 170 ± 15 nM
CCNC(=O)C(=O)C(CC)NC(=O)C(CC(C)C)NC(=O)N(C)C [Dimethylurea-L-Leu-L-Abu-CONH-Et] | 332 ± 29 nM

Next, values leading:

Ki | Compound
76.6 ± 5.2 nM | Cbz-L-Leu-L-Phe-C(O)-L-Norleucine-OMe
77 ± 10 nM | Cbz-L-Leu-L-Abu-CONH-Et
31 ± 12 nM | Cbz-L-Leu-L-Phe-C(O)-Phe-OMe
93 ± 4 nM | Boc-D-Phe-L-Leu-L-Norvaline-CONH-Et
273 ± 17 nM | COC(=O)[C@H](Cc1ccc(OC(C)(C)C)cc1)NC(=O)C(=O)C(Cc1ccccc1)NC(=O)[C@H](CC(C)C)NC(=O)OCc1ccccc1 (stereo partly drawn) [Cbz-L-Leu-L-Phe-C(O)-Tyr(O-t-butyl)-OMe]
141 ± 22 nM | CCC(NC(=O)C(=O)C(Cc1ccccc1)NC(=O)C(CC(C)C)NC(=O)OCc1ccccc1)C(=O)OC [Cbz-L-Leu-L-Phe-C(O)-L-α-Abu-OMe]
